What was measured:
[1] = Bioavailability after administration by inhalation as powder inhalant; details: in vivo, inhaled or intranasal; administered by inhalation as powder inhalant; based on the fine content of the formulation (FPD, USP 24 Suppl. 2000)
[2] = conventional formulations; cited from earlier work

- bioavailability [1]: ~60%
Structure (SMILES): NCCCC[C@H](NC(=O)[C@@H](Cc1cc(Br)c(O)c(Br)c1)NC(=O)N1CCC(N2Cc3ccccc3NC2=O)CC1)C(=O)N1CCN(c2ccncc2)CC1 [A, 1-[N^2-[3,5-dibromo-N-[[4-(3,4-dihydro-2(1H)-oxoquinazolin-3-yl)-1-piperidinyl]carbonyl]-D-tyrosyl]-L-lysyl]-4-(4-pyridinyl)-piperazine]
- oral bioavailability [2]: very limited
